Results published in patent US6734180B1, “NF-κB inhibitor comprising an indan derivative as an active ingredient” (Daiichi Suntory Pharma Co., Ltd., priority 1998, dated 2004).
pIC50: −log10 of the molar value. Where two headings read alike, the source gives them in different places.

What was measured:
NO production = NO production of LPS-stimulated RAW264.7 cells (Griess' method); assay type: cell-based, mouse; conditions: LPS (10 μg/ml), 24 hours after the stimulation
Source text: (§1) Experiment 3. Effect of lipopolysaccharide (LPS) stimulation on NO and TNF-α production
(§2) When various cells are stimulated with LPS, NV-κB is activated which results in the expression and induction of proteins represented by NOS, TNF-α, and thereby the cells start to produce NO and/or TNF-α.
To determine the production of NO indirectly, the Griess' method utilizing a diazo reaction is useful (Green, L. C. et al., (1982) Anal. Biochem, 126, 131-138). In the Griess' method, the Griess' reagent prepared by mixing naphthylethylenediamine and sulfanilic acid is reacted with NO2^− ion in the culture medium, and the color development thereof is measured by an absorbance at 540 nm.
(§3) The inhibitory effect of these compounds was expressed as IC50 value in Table 3.

TNF-α production = TNF-α production of LPS-stimulated RAW264.7 cells (ELISA); assay type: cell-based, mouse; conditions: RAW264.7 cells stimulated with LPS for 4 hours
Source text: as §1, §2, §3

[1] = system: human inducible NO synthase (hiNOS) gene; test: Expression of the human inducible NO synthase (hiNOS) gene, firefly luciferase reporter in A5 cells; assay type: cell-based; conditions: IL-1β (1 ng/ml)+TNF-α (500 ng/ml), firefly luciferase activity 24 hours later, read-out: IL-1β + TNF-α stimulation IC50 (inhibitory effect on the expression of the hiNOS gene)
Procedure: Experiment 1. Effect of compounds on the expression of the human inducible NO synthase (hiNOS) gene
The experiment was carried out using A5 cells (human lung carcinoma cell line A549 cells (ATCC, CCL185) stably transfected with NOS53+F) previously reported by the inventors (Nunokawa, Y. et al., (1997) Biochem. Biophys. Res. Commun. 233, 523-526).
Compounds described in Examples were added to A5 cells simultaneously with IL-1β (1 ng/ml)+TNF-α (500 ng/ml) to investigate the inhibitory effect on the firefly luciferase activity 24 hours later.
The activity of firefly luciferase was measured based on the protocol by the Luciferase Assay System (Promega, U.S.A.).
The inhibitory effect of the compounds claimed in the present invention on the expression of the hiNOS gene was expressed as IC50 value in Table 1.

[2] = system: rat models of carageenin foot pad edema; test: Carrageenin foot pad edema in rats; assay type: in vivo; conditions: male Wistar rats, 1 mg/kg intraperitoneally 15 minutes before carrageenin
Procedure: FIG. 1 is a graph showing the result of Experiment 4 in which the compounds of Example 32 were studied using rat models of carageenin foot pad edema. Each point represents the mean±SE (n=5). Dunnett's test was carried out and the results are shown by * p<0.05 and ** p<0.01.
An aqueous solution of 1% λ-carrageenin (Wako Pure Chemical Industries) in physiological saline (0.1 ml) was intradermally administered to the pad of the left paw of 6-week old male Wistar rats weighing 149 g to 171 g, and changes in the volume of the paw were measured for indicated period. The test compound (0.3, 1 mg/kg) described in Example 32 was suspended in a solution of 0.5% hydroxypropyl cellulose in physiological saline (EPC, Nippon Soda Co., Ltd.) and was intraperitoneally given 15 minutes before the administration of carrageenin. For the control group, a solution of 0.5% HPC in physiological saline was used.

[3] = system: sea pansy luciferase gene (pRL-SV40) under the control of SV40 promoter; test: Sea pansy luciferase under SV40 promoter (NF-κB independent) in A5 cells; assay type: cell-based, human; conditions: no stimulation, compound at 1 μg/ml for 4 hours
Procedure: The activity of sea pansy luciferase was measured based on the protocol by the Dual Luciferase Reporter Assay System (Promega, U.S.A.).

NF-κB = test: NF-κB-controlled firefly luciferase in A549/NF-κBLuc cells; assay type: cell-based, human
Procedure: Experiment 2. Effect of compounds on A549 cells (A549/NF-κBLuc) stably transfected with luciferase plasmid (pNFκB-Luc) having the NF-κB regulatory sequence
Using lipofectamine (Lifetech oriental K.K., Tokyo), pNFκB-Luc (Stratagene, U.S.A.) were cotransfected with pSV2neo (Clontech, U.S.A.) into A549 cells according to the conventional method, and A549/NF-κBLuc stably transfected with pNFκB-Luc were selected by adding G418 sulfate ((1 mg/ml) Lifetech Oriental K.K.) to the culture medium.
NF-κB inhibiting activity was expressed as IC50 values in Table 2.

Row | Structure (SMILES) | pIC50 (NO production; Mus musculus) | pIC50 (TNF-α production; Mus musculus) | pIC50 ([1]; Homo sapiens) | also measured
1 | Cc1noc2ncnc(NC3Cc4ccccc4C3)c12 [Example 10, 3-methyl-4-(2-indanylamino)isoxazolo[5,4-d]pyrimidine] |  |  |  | melting point: 208 °C
2 | Cc1csc2ncnc(NC3Cc4ccc(C(=O)N5CCOCC5)cc4C3)c12 (stereo not shown) [Example 32, 2-[5-methylthieno[2,3-d]pyrimidine-4-yl]aminoindan-5-carboxylic acid morpholinamide] |  |  |  | edema formation at 2 hours ([2]; 2 hours): significantly suppressed edema formation; edema suppression at 3 hours and after ([2]; 3 hours and after): high rate of edema suppression; pIC50 (NO production): 7.60; pIC50 (TNF-α production): 7.29; influence on the activity of sea pansy luciferase [3]: had no influence; pIC50 [1]: 7.29; pIC50 (NF-κB; IL-1β (1 ng/ml) for 4 hours, read-out: IL-1β stimulation IC50 (NF-κB inhibiting activity)): 7.29; pIC50 (NF-κB; TNF-α (500 ng/ml) for 4 hours, read-out: TNF-α stimulation IC50 (NF-κB inhibiting activity)): 7.05
3 | Cc1csc2ncnc(NC3Cc4ccc(C(=O)NCc5ccccc5)cc4C3)c12 (stereo not shown) [Example 31, N-benzyl-2-(5-methylthieno[2,3-d]pyrimidine-4-yl)amino-5-indan carboxamide] | 7.62 | 7.32 | 8.62 | influence on the activity of sea pansy luciferase [3]: had no influence
4 | c1ccc2c(c1)CC(Nc1ncnc3occc13)C2 [Example 6, 4-(2-indanylamino)furo[2,3-d]pyrimidine] |  |  | 6.10 | 
5 | c1ccc2c(c1)CC(Nc1ncnc3nc[nH]c13)C2 [Example 37, 6-(2-indanylamino)purine] |  |  |  | melting point: ≥ 300 °C

Further lines, with some results ahead:

Row | pIC50 (NO production; Mus musculus) | pIC50 (TNF-α production; Mus musculus) | pIC50 ([1]; Homo sapiens) | Structure (SMILES) | also measured
6 | 6.15 | 5.96 | 6.55 | Cc1csc2ncnc(NC3Cc4ccccc4C3)c12 [Example 1, 4-(2-indanylamino)-5-methylthieno[2,3-d]pyrimidine] | 
7 | 7.19 | 6.80 | 7.19 | CC(C)c1csc2ncnc(NC3Cc4ccccc4C3)c12 [Example 22, 4-(2-indanylamino)-5-isopropylthieno[2,3-d]pyrimidine] | 
8 |  |  | 6.82 | Cc1csc2ncnc(NC3Cc4ccc(Oc5ccccc5)cc4C3)c12 (stereo not shown) [Example 25, 4-(5-phenoxyindan-2-yl)amino-5-methylthieno[2,3-d]pyrimidine] | 
